Source: patent publication US8110569B2, “Enantiomerically pure S-etifoxine, pharmaceutical compositions thereof and methods of their use” (The Regents of the University of California, priority 2006, dated 2012)

Legend:
[1] = test system: α1β1-3γ2L GABAA receptors; assay: Modulation of GABA-evoked currents in Xenopus oocytes (2-electrode voltage clamp), GABA subunit selectivity; type: cell-based; settings: human GABAA receptor subunits expressed in Xenopus oocytes; for GABA subunit selectivity: GABA EC10 control currents, FIGS. 4A and 4B
Method: GABA subunit selectivity of etifoxine enantiomers was measured based on their ability to modulate the GABA-evoked currents in Xenopus oocytes.
Receptor mRNA preparation: cDNA clones encoding human GABAA receptor subunits were obtained from commercial sources. mRNA was prepared using conventional techniques with commercially-available “mMessage machine” kits (Ambion). Individual mRNAs (˜1 μg/μL) were stored in aliquots at −80° C.
mRNA injections into Xenopus oocytes: Preparation and micro-injection of oocytes were performed as reported in detail previously (see, Whittemore et al., 1996, Mol Pharmacol 50: 1364-1375). Individual oocytes were injected with 5-50 ng of mRNA at 5:1:1 (GABA). For example, individual oocytes were injected with a 5:1:1 mixture of α1, β1-3, and γ2L (˜5-50 ng of each subunit per cell) to produce expression of α1β1-3γ2L GABAA receptors. Following injections, oocytes were maintained at 16-17° C. in Barth's medium containing (in mM): NaCl, 88; KCl, 1; CaCl2, 0.41; Ca(NO3)2, 0.33; MgSO4, 0.82; NaHCO3, 2.4; HEPES 5; pH=7.4, with 0.1 mg/ml gentamycin sulfate.
Oocyte Electrophysiological recordings: Individual oocytes were placed on a nylon mesh in a 35 mm dish, perfused with frog Ringer (see, Whittemore et al., supra), and voltage clamped at a holding potential of −70 mV. In some cases, simple voltage steps were made to test voltage-dependence. Oocytes were perfused with fresh Ringer or exposed to GABA ±modulators using a custom-made gravity-driven perfusion system consisting of a linear array of 3 capillary tubes. The concentration of GABA used to evoke control currents was adjusted for each individual oocyte to be ˜10% of the maximal current (EC10) measured in that cell. The concentration of GABA required to evoke EC10 ‘control’ currents varied between ˜2 and 12 μM. […] Data are expressed as % of control currents (% modulation=100*[(modulated current/GABA control current)−1].

[2] = In vivo racemization study, plasma enantiomers by chiral LC-MS/MS; design: species or system mouse; settings: 30 mg/kg perorally, NSA mice, plasma 30 minutes post dose; FIG. 6A
Method: Pure S-etifoxine was administered at 30 mg/kg, perorally, to NSA mice. The desired enantiomer was dissolved in PEG at a concentration of 15 mg/mL and a dose of 2 mL/kg was administered perorally to overnight fasted mice. Plasma concentration of etifoxine enantiomers was determined by LC-MS/MS analysis.
A mixture of 100 μL plasma and 200 μL water in a 6-mL plastic culture tube was vortexed briefly, for about 10 seconds. To this was added 1.5 mL methyl tert-butyl ether and 1.5 mL hexane and vortexed briefly for about 10 seconds. The mixture was centrifuged for about 10 minutes and frozen at −80° C. for 10 minutes. The organic layer was collected and dried under nitrogen at 37° C. The solid was resuspended in 250 μL methanol, vortexed and transferred to 96-well plate.
The samples were analyzed by LC-MS/MS on a […] CHIRALCEL® OD (lot #OD00CE-FJ033) column at room temperature. A mixture of 75% hexane, 25% isopropyl alcohol and 0.05% […] was used as an isocratic mobile phase. The flow rate was set at 1 mL/min at room temperature. Racemic etifoxine spiked into plasma was used as a reference standard. FIGS. 6A and 6B provide representative chromatograms of extracted plasma sample (pure S-etifoxine, dosed at 30 mg/kg/po at 30 minutes post dose) and racemic standard spiked into plasma (100 ng/mL), respectively. […]

[3] = test system: mouse formalin pain model; assay: Mouse formalin test, late phase licking (analgesic effect); type: in vivo; settings: 3 mg/kg i.p., 30 minutes prior to formalin; male NSA mice; FIG. 5
Method: The analgesic effect of test compounds was assessed in a mouse formalin pain model (Hole et al., 1993, Pain 53:247-254). Male NSA mice weighing between 27 and 30 g were housed with access to food and water ad libitum until the test date. On the day of testing, they were given a period of 1 h to adjust to the test chamber. Test compounds or vehicle control (75% polyethylene glycol in 5% dextrose+water) were administered i.p. at 30 minutes prior to the administration of formalin. A solution of 20 μl of 2.5% formalin was then injected subcutaneously into the dorsal side of the hind paw of the test mouse. Immediately following formalin injection, the mice were observed over the next 50 min and the time spent licking the injected hind paw was recorded. The observation time was broken down into 5 minute “bins”, with 10 bins in total. The first 5-min bin is the early phase, considered to be reflective of acute pain. Bins three to ten make up the late phase, considered a measure of chronic inflammatory pain. The results for the late phase are expressed as the averaged mean time (in seconds) that mice spent licking in a 5-min period.
Dose-response relationship was conducted in the range of 3 to 60 mg/kg. Statistical differences in response were determined by one-way analysis of variance with the Dunnett's post-hoc test by using the Prism3 statistical software (GraphPad, Inc., San Diego, Calif.).

Row | Structure (SMILES) | GABA subunit selectivity [1] | racemization in vivo (R-etifoxine in plasma) [2] | activity in the formalin test (late phase licking) [3] | selectivity between β2 and β1 subunit ([1]; FIG. 4B)
1 | CCN=C1Nc2ccc(Cl)cc2[C@@](C)(c2ccccc2)O1 [R-etifoxine] | little or no GABA subunit selectivity |  |  | 
2 | CCNC1=Nc2ccc(Cl)cc2C(C)(c2ccccc2)O1 (centres unmarked) [S-etifoxine] | shows selectivity for GABA receptor comprising β subunit | little or no racemization in vivo | active | more selective for β2 subunit than β1 subunit
